Experimental data as given in ChEMBL document CHEMBL1914384, “Design, synthesis, and structure-activity relationship studies of highly potent novel benzoxazinyl-oxazolidinone antibacterial agents” (J Med Chem, 2011).
Converted amounts (≈) assume the structure as drawn.

How the values were obtained:
Type in all cases: functional
Staphylococcus aureus [1] = assay: Antibacterial activity against Staphylococcus aureus ATCC 29213 after 16 hrs by agar dilution method; details: ATCC 29213, 16 h
[2] = tested on: Staphylococcus epidermidis; assay: Antibacterial activity against methicillin-resistant Staphylococcus epidermidis after 16 hrs by agar dilution method
Staphylococcus aureus [3] = assay: Antibacterial activity against methicillin-resistant Staphylococcus aureus after 16 hrs by agar dilution method
Streptococcus pneumoniae = assay: Antibacterial activity against penicillin-resistant Streptococcus pneumoniae after 16 hrs by agar dilution method
Enterococcus faecalis = assay: Antibacterial activity against Enterococcus faecalis after 16 hrs by agar dilution method

Compound	MIC (Staphylococcus aureus [1])	MIC [2]	MIC (Staphylococcus aureus [3])	MIC (Streptococcus pneumoniae)	MIC (Enterococcus faecalis)
COc1ncc(-c2ccc3c(c2)OC[C@H]2[C@H](CNC(C)=O)OC(=O)N32)c(OC)n1	1 µg/mL (≈ 2.5 µM)	1 µg/mL (≈ 2.5 µM)	1 µg/mL (≈ 2.5 µM)	1 µg/mL (≈ 2.5 µM)	1 µg/mL (≈ 2.5 µM)
CC(=O)NC[C@@H]1OC(=O)N2c3ccc(-c4ccc(-c5noc(C)n5)nc4)cc3OC[C@@H]12	0.25 µg/mL (≈ 0.593 µM)	0.5 µg/mL (≈ 1.19 µM)	0.5 µg/mL (≈ 1.19 µM)	1 µg/mL (≈ 2.37 µM)	1 µg/mL (≈ 2.37 µM)
CC(=O)NC[C@@H]1OC(=O)N2c3ccc(-c4ccc(-n5ccnc5)nc4)cc3OC[C@@H]12	0.5 µg/mL (≈ 1.23 µM)	0.5 µg/mL (≈ 1.23 µM)	0.5 µg/mL (≈ 1.23 µM)	0.5 µg/mL (≈ 1.23 µM)	1 µg/mL (≈ 2.47 µM)
CC(=O)NC[C@@H]1OC(=O)N2c3ccc(-c4cccc(N)c4)cc3OC[C@@H]12	0.5 µg/mL (≈ 1.41 µM)	1 µg/mL (≈ 2.83 µM)	1 µg/mL (≈ 2.83 µM)	0.5 µg/mL (≈ 1.41 µM)	1 µg/mL (≈ 2.83 µM)
CC(=O)NC[C@@H]1OC(=O)N2c3ccc(-c4ccc(C#N)cn4)cc3OC[C@@H]12	2 µg/mL (≈ 5.49 µM)	1 µg/mL (≈ 2.74 µM)	1 µg/mL (≈ 2.74 µM)	2 µg/mL (≈ 5.49 µM)	2 µg/mL (≈ 5.49 µM)
CC(=O)NC[C@@H]1OC(=O)N2c3ccc(N4CCN(Cc5ccc([N+](=O)[O-])o5)CC4)cc3OC[C@@H]12	4 µg/mL (≈ 8.48 µM)	2 µg/mL (≈ 4.24 µM)	4 µg/mL (≈ 8.48 µM)	> 8 µg/mL	> 16 µg/mL
CC(=O)NC[C@@H]1OC(=O)N2c3ccc(N4CCN(Cc5ccco5)CC4)cc3OC[C@@H]12	> 16 µg/mL	> 16 µg/mL	16 µg/mL (≈ 37.5 µM)	> 16 µg/mL	> 16 µg/mL
CC(=O)NC[C@@H]1OC(=O)N2c3ccc(-c4ccsc4)cc3OC[C@@H]12	2 µg/mL (≈ 5.81 µM)	2 µg/mL (≈ 5.81 µM)	2 µg/mL (≈ 5.81 µM)	2 µg/mL (≈ 5.81 µM)	4 µg/mL (≈ 11.6 µM)
CC(=O)NC[C@@H]1OC(=O)N2c3ccc(-c4ccncc4)cc3OC[C@@H]12	0.5 µg/mL (≈ 1.47 µM)	1 µg/mL (≈ 2.95 µM)	0.5 µg/mL (≈ 1.47 µM)	1 µg/mL (≈ 2.95 µM)	1 µg/mL (≈ 2.95 µM)
CC(=O)NC[C@@H]1OC(=O)N2c3ccc(-c4cnc(N)nc4)cc3OC[C@@H]12	1 µg/mL (≈ 2.81 µM)	1 µg/mL (≈ 2.81 µM)	1 µg/mL (≈ 2.81 µM)	1 µg/mL (≈ 2.81 µM)	2 µg/mL (≈ 5.63 µM)
CC(=O)NC[C@@H]1OC(=O)N2c3ccc(-c4ccc(NC(C)=O)nc4)cc3OC[C@@H]12	0.5 µg/mL (≈ 1.26 µM)	1 µg/mL (≈ 2.52 µM)	0.5 µg/mL (≈ 1.26 µM)	1 µg/mL (≈ 2.52 µM)	1 µg/mL (≈ 2.52 µM)
CC(=O)NC[C@@H]1OC(=O)N2c3ccc(N4CCN(Cc5cccnc5)CC4)cc3OC[C@@H]12	16 µg/mL (≈ 36.6 µM)	> 16 µg/mL	> 16 µg/mL	> 16 µg/mL	> 16 µg/mL
CC(=O)NC[C@@H]1OC(=O)N2c3ccc(-c4ccc(C(C)=O)cc4)cc3OC[C@@H]12	1 µg/mL (≈ 2.63 µM)	0.5 µg/mL (≈ 1.31 µM)	1 µg/mL (≈ 2.63 µM)	2 µg/mL (≈ 5.26 µM)	1 µg/mL (≈ 2.63 µM)
CC(=O)NC[C@@H]1OC(=O)N2c3ccc(-c4ccc(C#N)cc4)cc3OC[C@@H]12	0.25 µg/mL (≈ 0.688 µM)	0.5 µg/mL (≈ 1.38 µM)	0.5 µg/mL (≈ 1.38 µM)	0.5 µg/mL (≈ 1.38 µM)	1 µg/mL (≈ 2.75 µM)
CC(=O)NC[C@@H]1OC(=O)N2c3ccc(N4CCOCC4)cc3OC[C@@H]12	4 µg/mL (≈ 11.5 µM)	4 µg/mL (≈ 11.5 µM)	4 µg/mL (≈ 11.5 µM)	8 µg/mL (≈ 23 µM)	8 µg/mL (≈ 23 µM)
CC(=O)NC[C@@H]1OC(=O)N2c3ccc(N4CCN(Cc5ccccc5[N+](=O)[O-])CC4)cc3OC[C@@H]12	8 µg/mL (≈ 16.6 µM)	8 µg/mL (≈ 16.6 µM)	8 µg/mL (≈ 16.6 µM)	> 16 µg/mL	> 16 µg/mL
CC(=O)NC[C@@H]1OC(=O)N2c3ccc(-c4ccccc4)cc3OC[C@@H]12	0.5 µg/mL (≈ 1.48 µM)	1 µg/mL (≈ 2.96 µM)	0.5 µg/mL (≈ 1.48 µM)	0.5 µg/mL (≈ 1.48 µM)	2 µg/mL (≈ 5.91 µM)
CC(=O)NC[C@@H]1OC(=O)N2c3ccc(N4CCN(Cc5ccoc5)CC4)cc3OC[C@@H]12	16 µg/mL (≈ 37.5 µM)	8 µg/mL (≈ 18.8 µM)	> 8 µg/mL	> 16 µg/mL	> 16 µg/mL

Compound	MIC (Staphylococcus aureus [1])	MIC [2]	MIC (Staphylococcus aureus [3])	MIC (Streptococcus pneumoniae)	MIC (Enterococcus faecalis)
CC(=O)NC[C@@H]1OC(=O)N2c3ccc(-c4cccnc4)cc3OC[C@@H]12	0.5 µg/mL (≈ 1.47 µM)	0.5 µg/mL (≈ 1.47 µM)	0.5 µg/mL (≈ 1.47 µM)	0.5 µg/mL (≈ 1.47 µM)	1 µg/mL (≈ 2.95 µM)
CC(=O)NC[C@@H]1OC(=O)N2c3ccc(N4CCN(Cc5ccncc5)CC4)cc3OC[C@@H]12	16 µg/mL (≈ 36.6 µM)	> 16 µg/mL	> 16 µg/mL	> 16 µg/mL	> 16 µg/mL
CC(=O)NC[C@@H]1OC(=O)N2c3ccc(-c4ccc(C(=O)N(C)C)nc4)cc3OC[C@@H]12	2 µg/mL (≈ 4.87 µM)	1 µg/mL (≈ 2.44 µM)	1 µg/mL (≈ 2.44 µM)	2 µg/mL (≈ 4.87 µM)	2 µg/mL (≈ 4.87 µM)
CC(=O)NC[C@@H]1OC(=O)N2c3ccc(-c4ccc(N5CCOC5=O)cn4)cc3OC[C@@H]12	1 µg/mL (≈ 2.36 µM)	1 µg/mL (≈ 2.36 µM)	1 µg/mL (≈ 2.36 µM)	1 µg/mL (≈ 2.36 µM)	2 µg/mL (≈ 4.71 µM)
CC(=O)NC[C@@H]1OC(=O)N2c3cc(F)c(-c4ccc(C#N)nc4)cc3OC[C@@H]12	2 µg/mL (≈ 5.23 µM)	1 µg/mL (≈ 2.62 µM)	1 µg/mL (≈ 2.62 µM)	2 µg/mL (≈ 5.23 µM)	2 µg/mL (≈ 5.23 µM)
CC(=O)NC[C@@H]1OC(=O)N2c3ccc(-c4cncnc4)cc3OC[C@@H]12	0.25 µg/mL (≈ 0.735 µM)	0.5 µg/mL (≈ 1.47 µM)	0.5 µg/mL (≈ 1.47 µM)	1 µg/mL (≈ 2.94 µM)	1 µg/mL (≈ 2.94 µM)
CC(=O)NC[C@@H]1OC(=O)N2c3cc(F)c(-c4cccnc4)cc3OC[C@@H]12	2 µg/mL (≈ 5.6 µM)	1 µg/mL (≈ 2.8 µM)	1 µg/mL (≈ 2.8 µM)	2 µg/mL (≈ 5.6 µM)	2 µg/mL (≈ 5.6 µM)
CC(=O)NC[C@@H]1OC(=O)N2c3ccc(-c4ccc(-c5nnn(C)n5)nc4)cc3OC[C@@H]12	0.5 µg/mL (≈ 1.19 µM)	0.5 µg/mL (≈ 1.19 µM)	0.5 µg/mL (≈ 1.19 µM)	0.5 µg/mL (≈ 1.19 µM)	1 µg/mL (≈ 2.37 µM)
CC(=O)NC[C@@H]1OC(=O)N2c3ccc(-c4ccc(C(F)(F)F)nc4)cc3OC[C@@H]12	2 µg/mL (≈ 4.91 µM)	1 µg/mL (≈ 2.45 µM)	1 µg/mL (≈ 2.45 µM)	2 µg/mL (≈ 4.91 µM)	2 µg/mL (≈ 4.91 µM)
CC(=O)NC[C@@H]1OC(=O)N2c3ccc(-c4ccc(-n5cncn5)nc4)cc3OC[C@@H]12	0.5 µg/mL (≈ 1.23 µM)	1 µg/mL (≈ 2.46 µM)	1 µg/mL (≈ 2.46 µM)	2 µg/mL (≈ 4.92 µM)	2 µg/mL (≈ 4.92 µM)
CC(=O)NC[C@@H]1OC(=O)N2c3ccc(-c4ccc(CC#N)nc4)cc3OC[C@@H]12	0.25 µg/mL (≈ 0.661 µM)	0.25 µg/mL (≈ 0.661 µM)	0.25 µg/mL (≈ 0.661 µM)	0.5 µg/mL (≈ 1.32 µM)	0.5 µg/mL (≈ 1.32 µM)
CC(=O)NC[C@@H]1OC(=O)N2c3ccc(-c4cncc(C#N)c4)cc3OC[C@@H]12	0.5 µg/mL (≈ 1.37 µM)	0.5 µg/mL (≈ 1.37 µM)	0.5 µg/mL (≈ 1.37 µM)	0.5 µg/mL (≈ 1.37 µM)	1 µg/mL (≈ 2.74 µM)
CC(=O)NC[C@@H]1OC(=O)N2c3ccc(-c4cc(C#N)ccn4)cc3OC[C@@H]12	0.5 µg/mL (≈ 1.37 µM)	0.25 µg/mL (≈ 0.686 µM)	0.5 µg/mL (≈ 1.37 µM)	0.25 µg/mL (≈ 0.686 µM)	1 µg/mL (≈ 2.74 µM)
CC(=O)NC[C@@H]1OC(=O)N2c3ccc(-c4cncc(N5CCOC5=O)c4)cc3OC[C@@H]12	1 µg/mL (≈ 2.36 µM)	0.5 µg/mL (≈ 1.18 µM)	0.5 µg/mL (≈ 1.18 µM)	1 µg/mL (≈ 2.36 µM)	0.5 µg/mL (≈ 1.18 µM)
CC(=O)NC[C@@H]1OC(=O)N2c3ccc(-c4ccc(C(C)=O)cn4)cc3OC[C@@H]12	2 µg/mL (≈ 5.24 µM)	2 µg/mL (≈ 5.24 µM)	2 µg/mL (≈ 5.24 µM)	2 µg/mL (≈ 5.24 µM)	4 µg/mL (≈ 10.5 µM)
CC(=O)NC[C@@H]1OC(=O)N2c3ccc(-c4cccs4)cc3OC[C@@H]12	1 µg/mL (≈ 2.9 µM)	1 µg/mL (≈ 2.9 µM)	1 µg/mL (≈ 2.9 µM)	1 µg/mL (≈ 2.9 µM)	4 µg/mL (≈ 11.6 µM)
CC(=O)NC[C@@H]1OC(=O)N2c3cc(F)c(-c4ccncc4)cc3OC[C@@H]12	2 µg/mL (≈ 5.6 µM)	2 µg/mL (≈ 5.6 µM)	4 µg/mL (≈ 11.2 µM)	8 µg/mL (≈ 22.4 µM)	8 µg/mL (≈ 22.4 µM)
CC(=O)NC[C@@H]1OC(=O)N2c3ccc(-c4cncc(C(C)=O)c4)cc3OC[C@@H]12	1 µg/mL (≈ 2.62 µM)	0.5 µg/mL (≈ 1.31 µM)	1 µg/mL (≈ 2.62 µM)	1 µg/mL (≈ 2.62 µM)	1 µg/mL (≈ 2.62 µM)
